According to patent publication US10770169B2, “Method of providing a treatment to a subject based on a dynamic pathway map” (THE REGENTS OF THE UNIVERSITY OF CALIFORNIA, priority 2010, dated 2020):
Like-named read-outs stand apart in the source and are kept apart here.

Tested on: panel of 55 breast cancer cell lines
Assay: Cell growth inhibition assay (Cell Titer Glo, 72 h, 9 doses; GI50, TGI, LC50)
Format: cell-based, human
Conditions: Homo sapiens, read-out: GI50 (converted)
[1] = 600MPE cell line, censored GI50 values
[2] = AU565, AU565 cell line, censored GI50 values
[3] = BT-474, BT474 cell line, censored GI50 values
[4] = BT-483, BT483 cell line, censored GI50 values
[5] = BT-549, BT549 cell line, censored GI50 values
[6] = HCC38, HCC38 cell line, censored GI50 values
[7] = HCC70, HCC70 cell line, censored GI50 values
[8] = HCC202, HCC202 cell line, censored GI50 values
[9] = HCC1143, HCC1143 cell line, censored GI50 values
[10] = HCC1187, HCC1187 cell line, censored GI50 values
[11] = HCC1395, HCC1395 cell line, censored GI50 values
[12] = HCC1419, HCC1419 cell line, censored GI50 values
[13] = HCC1428, HCC1428 cell line, censored GI50 values
[14] = HCC1500, HCC1500 cell line, censored GI50 values
[15] = HCC1806, HCC1806 cell line, censored GI50 values
[16] = HCC1937, HCC1937 cell line, censored GI50 values
[17] = HCC1954, HCC1954 cell line, censored GI50 values
[18] = HCC2185 cell line, censored GI50 values
[19] = HCC3153 cell line, censored GI50 values
[20] = LY2 cell line, censored GI50 values
[21] = MCF7, MCF7 cell line, censored GI50 values
[22] = MDA-MB-134-VI, MDAMB134VI cell line, censored GI50 values
[23] = MDA-MB-175-VII, MDAMB175VII cell line, censored GI50 values
[24] = MDA-MB-231, MDAMB231 cell line, censored GI50 values
[25] = MDA-MB-361, MDAMB361 cell line, censored GI50 values
[26] = MDA-MB-415, MDAMB415 cell line, censored GI50 values
[27] = MDA-MB-436, MDAMB436 cell line, censored GI50 values
[28] = MDA-MB-453, MDAMB453 cell line, censored GI50 values
[29] = MDA-MB-468, MDAMB468 cell line, censored GI50 values
[30] = SUM52PE, SUM52PE cell line, censored GI50 values
[31] = SUM149PT, SUM149PT cell line, censored GI50 values
[32] = SUM185PE, SUM185PE cell line, censored GI50 values
[33] = SUM1315MO2, SUM1315MO2 cell line, censored GI50 values
[34] = SUM-159-PT, SUM159PT cell line, censored GI50 values
[35] = UACC-812, UACC812 cell line, censored GI50 values
[36] = UACC-893, UACC893 cell line, censored GI50 values
[37] = ZR-75-1, ZR751 cell line, censored GI50 values
[38] = ZR-75B, ZR75B cell line, censored GI50 values

COC1=C2C[C@@H](C)C[C@H](OC)[C@H](O)[C@@H](C)/C=C(\C)[C@H](OC(N)=O)[C@@H](OC)/C=C\C=C(/C)C(=O)NC(=CC1=O)C2=O [Geldanamycin]
GI50 [1]: 38.9 nM
GI50 [2]: 51.3 nM
GI50 (AU565, cell line AU565): 51.3 nM
GI50 [3]: 14.5 nM
GI50 (BT-474, cell line BT474): 14.5 nM
GI50 [4]: 145 nM
GI50 (BT-483, cell line BT483): 145 nM
GI50 [5]: 5.5 nM
GI50 (BT-549, cell line BT549): 5.5 nM
GI50 (CAMA-1, CAMA1 cell line, censored GI50 values): 79.4 nM
GI50 (CAMA-1, cell line CAMA1): 79.4 nM
GI50 [6]: 28.8 nM
GI50 (HCC38, cell line HCC38): 28.8 nM
GI50 [7]: 93.3 nM
GI50 (HCC70, cell line HCC70): 93.3 nM
GI50 [8]: 1.48 nM
GI50 (HCC202, cell line HCC202): 1.48 nM
GI50 [9]: 81.3 nM
GI50 (HCC1143, cell line HCC1143): 81.3 nM
GI50 [10]: 15.8 nM
GI50 (HCC1187, cell line HCC1187): 15.8 nM
GI50 [11]: 61.7 nM
GI50 (HCC1395, cell line HCC1395): 61.7 nM
GI50 [12]: 32.4 nM
GI50 (HCC1419, cell line HCC1419): 32.4 nM
GI50 [13]: 31.6 nM
GI50 (HCC1428, cell line HCC1428): 31.6 nM
GI50 [14]: 155 nM
GI50 (HCC1500, cell line HCC1500): 155 nM
GI50 [15]: 75.9 nM
GI50 (HCC1806, cell line HCC1806): 75.9 nM
GI50 [16]: 29.5 nM
GI50 (HCC1937, cell line HCC1937): 29.5 nM
GI50 [17]: 7.24 nM
GI50 (HCC1954, cell line HCC1954): 7.24 nM
GI50 [18]: 18.2 nM
GI50 [19]: 67.6 nM
GI50 [20]: 100 nM
GI50 [21]: 240 nM
GI50 (MCF7, cell line MCF7): 240 nM
GI50 [22]: 20.9 nM
GI50 [23]: 17.8 nM
GI50 [24]: 28.8 nM
GI50 (MDA-MB-231, cell line MDAMB231): 28.8 nM
GI50 [25]: 25.7 nM
GI50 (MDA-MB-361, cell line MDAMB361): 25.7 nM
GI50 [26]: 57.5 nM
GI50 (MDA-MB-415, cell line MDAMB415): 57.5 nM
GI50 [27]: 148 nM
GI50 (MDA-MB-436, cell line MDAMB436): 148 nM
GI50 [28]: 19.5 nM
GI50 (MDA-MB-453, cell line MDAMB453): 19.5 nM
GI50 [29]: 27.5 nM
GI50 (MDA-MB-468, cell line MDAMB468): 27.5 nM
GI50 (SK-BR-3, SKBR3 cell line, censored GI50 values): 16.2 nM
GI50 (SK-BR-3, cell line SKBR3): 16.2 nM
GI50 [30]: 12 nM
GI50 (SUM52PE, cell line SUM52PE): 12 nM
GI50 [31]: 6.03 nM
GI50 (SUM149PT, cell line SUM149PT): 6.03 nM
GI50 [32]: 20 nM
GI50 (SUM185PE, cell line SUM185PE): 20 nM
GI50 [33]: 38 nM
GI50 [34]: 6.31 nM
GI50 (SUM-159-PT, cell line SUM159PT): 6.31 nM
GI50 [35]: 12.3 nM
GI50 (UACC-812, cell line UACC812): 12.3 nM
GI50 [36]: 11 nM
GI50 (UACC-893, cell line UACC893): 11 nM
GI50 [37]: 117 nM
GI50 (ZR-75-1, cell line ZR751): 117 nM
GI50 (ZR-75-30, ZR7530 cell line, censored GI50 values): 7.08 nM
GI50 (ZR-75-30, cell line ZR7530): 7.08 nM
GI50 [38]: 93.3 nM
GI50 (ZR-75B, cell line ZR75B): 93.3 nM
GI50 (cell line 600MPE): 38.9 nM
GI50 (cell line HCC2185): 18.2 nM
GI50 (cell line HCC3153): 67.6 nM
GI50 (cell line LY2): 100 nM
GI50 (cell line MDAMB134V): 20.9 nM
GI50 (cell line MDAMB175V): 17.8 nM
GI50 (cell line SUM1315MO): 38 nM

COc1cccc2c1C(=O)c1c(O)c3c(c(O)c1C2=O)C[C@@](O)(C(=O)CO)C[C@@H]3O[C@H]1C[C@H](N)[C@@H](O)[C@H](C)O1 [Epirubicin]
GI50 [1]: 347 nM
GI50 [2]: 145 nM
GI50 (AU565, cell line AU565): 145 nM
GI50 [3]: 6760 nM
GI50 (BT-474, cell line BT474): 6760 nM
GI50 [4]: 166 nM
GI50 (BT-483, cell line BT483): 166 nM
GI50 [5]: 204 nM
GI50 (BT-549, cell line BT549): 204 nM
GI50 [6]: 93.3 nM
GI50 (HCC38, cell line HCC38): 93.3 nM
GI50 [7]: 417 nM
GI50 (HCC70, cell line HCC70): 417 nM
GI50 [8]: 603 nM
GI50 (HCC202, cell line HCC202): 603 nM
GI50 [9]: 288 nM
GI50 (HCC1143, cell line HCC1143): 288 nM
GI50 [10]: 1000 nM
GI50 (HCC1187, cell line HCC1187): 1000 nM
GI50 [11]: 447 nM
GI50 (HCC1395, cell line HCC1395): 447 nM
GI50 [12]: 708 nM
GI50 (HCC1419, cell line HCC1419): 708 nM
GI50 [13]: 1350 nM
GI50 (HCC1428, cell line HCC1428): 1350 nM
GI50 [14]: 245 nM
GI50 (HCC1500, cell line HCC1500): 245 nM
GI50 [15]: 166 nM
GI50 (HCC1806, cell line HCC1806): 166 nM
GI50 [16]: 204 nM
GI50 (HCC1937, cell line HCC1937): 204 nM
GI50 [17]: 200 nM
GI50 (HCC1954, cell line HCC1954): 200 nM
GI50 [18]: 126 nM
GI50 [19]: 646 nM
GI50 [20]: 214 nM
GI50 [21]: 355 nM
GI50 (MCF7, cell line MCF7): 355 nM
GI50 [22]: 1050 nM
GI50 (MDA-MB-157, MDAMB157 cell line, censored GI50 values): 550 nM
GI50 (MDA-MB-157, cell line MDAMB157): 550 nM
GI50 [23]: 100 nM
GI50 [24]: 269 nM
GI50 (MDA-MB-231, cell line MDAMB231): 269 nM
GI50 [25]: 224 nM
GI50 (MDA-MB-361, cell line MDAMB361): 224 nM
GI50 [26]: 263 nM
GI50 (MDA-MB-415, cell line MDAMB415): 263 nM
GI50 [27]: 708 nM
GI50 (MDA-MB-436, cell line MDAMB436): 708 nM
GI50 [28]: 224 nM
GI50 (MDA-MB-453, cell line MDAMB453): 224 nM
GI50 [29]: 692 nM
GI50 (MDA-MB-468, cell line MDAMB468): 692 nM
GI50 [30]: 295 nM
GI50 (SUM52PE, cell line SUM52PE): 295 nM
GI50 [31]: 219 nM
GI50 (SUM149PT, cell line SUM149PT): 219 nM
GI50 [32]: 407 nM
GI50 (SUM185PE, cell line SUM185PE): 407 nM
GI50 [33]: 36.3 nM
GI50 [34]: 141 nM
GI50 (SUM-159-PT, cell line SUM159PT): 141 nM
GI50 [35]: 251 nM
GI50 (UACC-812, cell line UACC812): 251 nM
GI50 [36]: 776 nM
GI50 (UACC-893, cell line UACC893): 776 nM
GI50 [37]: 251 nM
GI50 (ZR-75-1, cell line ZR751): 251 nM
GI50 [38]: 115 nM
GI50 (ZR-75B, cell line ZR75B): 115 nM
GI50 (cell line 600MPE): 347 nM
GI50 (cell line HCC2185): 126 nM
GI50 (cell line HCC3153): 646 nM
GI50 (cell line LY2): 214 nM
GI50 (cell line MDAMB134V): 1050 nM
GI50 (cell line MDAMB175V): 100 nM
GI50 (cell line SUM1315MO): 36.3 nM
